“Also recorded” adds a separate entry of the source.
Legend:
NK cells = NK cells development assay (Lin− bone marrow cells co-cultured with OP9 stromal cells, flow cytometry); assay type: cell-based, mouse
Protocol: Mice. All mice used in this study were wild type on a C57BL/6 background, between six and twelve weeks old. All animal husbandry and experimental procedures were performed according to UK Home Office regulations and institute guidelines.
OP9 cell line and cell culture. OP9 is a stromal cell line from mouse bone marrow known to support lymphocyte differentiation of hematopoietic progenitors when co-culturing with them. OP9-GFP cells were cultured in Iscove's Modified Dulbecco's Medium (IMDM) (Sigma-Aldrich) supplemented with 20% Fetal Bovine Serum (FBS) and 1% Penicillin/[…] (P/S). They were split into 24-well plates with 2500 cells per well two days before transferring Lin− cells onto them. Cells were kept in a 5% CO2 humidified atmosphere at 37 QC. Lineage negative cells isolation from bone marrow. Mouse leg and hip bones were crushed in Phosphate Buffered Saline (PBS) with 2% FBS to release bone marrow cells. Cell suspension was filtered through a […] strainer, topped up to 40 mL with PBS+2% FBS and centrifuged at 500×g for 4 minutes. Cells were resuspended in 2 mL PBS+2% FBS and stained with phycoerythrin (PE)-conjugated cocktail (20 μL anti-B220 (RA3/6B2), 20 μL anti-CD2 (RM2-5), 20 μL anti-Ter119 (TER119), 20 μL anti-NK1.1 (PK136), 5 μL anti-CD11b (M1/70) and 5 μL Gr1 (RB6-8C5) antibodies (all from eBioscience) for 5 minutes at 4° C. Then, cells were washed, centrifuged and incubated with anti-PE Microbeads (Miltenyi) for 15 minutes at 4° C. Next, cells were washed with PBS and passed through LD column (Miltenyi), enabling the negative selection of unstained Lin− cells that flowed through the column. 50 μL of cells were taken to check the purity after depletion using flow cytometry. In vitro NK cell development from lineage negative cells. Lin− cells were plated in 24-well plates with 5×10^5 cells in 1 mL of Dulbecco's Modified Eagle Medium (DMEM) (Sigma-Aldrich) supplemented with 10% embryonic stem cell-qualified FBS (ES-FBS), 1% P/S, 50 μM β-Mercaptoethanol (β-ME), 10 ng/ml Flt3-ligand (Flt3L) (R&D Systems), 10 ng/mL IL-7 (R&D Systems) and 100 ng/mL stem cell factor (SCF) (R&D Systems) per well and cultured for 2 days. Cells were transferred for co-culture with OP9-GFP stromal cells in 24-well plates with 3×10^4 cells in 1 mL of Alpha MEM (Sigma-Aldrich) supplemented with 20% ES-FBS, 1% P/S, 50 μM β-ME and 10 ng/mL IL-15 (R&D Systems) per well and cultured for […]. Compounds were added on day 2, at the same time as cells were transferred together with OP9. Supernatant was removed on day 5, and new media was added with compound. Cells were kept in a 5% CO2 humidified atmosphere at 37° C.
Flow cytometry. After being cultured for 7 days, cells were harvested, filtered through 40 μm strainers to remove OP9 cells and washed with PBS. After centrifuging at 500×g for 5 minutes at 4° C., they were stained with appropriate fluorochrome conjugated antibodies with 1:300 dilution in 100 μL of fluorescent activated cell sorting (FACS) buffer (PBS with 1% BSA) for 15 minutes at 4° C. in the dark. Antibodies include CD3(e450), NK1.1(APC), NKp46(Percp e710) and PI, all of which are anti-mouse and from eBioscience. Cells were then washed in 1 ml FACS buffer, centrifuged and resuspended in 300 μL FACS buffer. Compensation was set up using Anti-Mouse Ig, k and Anti-Rat/Hamster Ig, k Compensation Particles Set (BDTM Combead). Flow cytometry analysis was carried out using BD LSRFortessa™ cell analyser (Becton Dickinson Bioscience) and data analysis was performed using FlowJo.
The method of Example 7 was repeated using 5 μM of Compounds 7 and 11, and 5 and 10 μM of Compound 72.

REV-ERBα = target: T1, REV-ERBα (Homo sapiens, UniProt P20393); experiment: Dual-luciferase Bmal-luc reporter assay in HEK293T cells transfected with REV-ERBα; assay type: cell-based; details: 10 μM
T1 construct: expressed in transfected cells; host or cells: HEK293T
T1 sequence (P20393 1-614): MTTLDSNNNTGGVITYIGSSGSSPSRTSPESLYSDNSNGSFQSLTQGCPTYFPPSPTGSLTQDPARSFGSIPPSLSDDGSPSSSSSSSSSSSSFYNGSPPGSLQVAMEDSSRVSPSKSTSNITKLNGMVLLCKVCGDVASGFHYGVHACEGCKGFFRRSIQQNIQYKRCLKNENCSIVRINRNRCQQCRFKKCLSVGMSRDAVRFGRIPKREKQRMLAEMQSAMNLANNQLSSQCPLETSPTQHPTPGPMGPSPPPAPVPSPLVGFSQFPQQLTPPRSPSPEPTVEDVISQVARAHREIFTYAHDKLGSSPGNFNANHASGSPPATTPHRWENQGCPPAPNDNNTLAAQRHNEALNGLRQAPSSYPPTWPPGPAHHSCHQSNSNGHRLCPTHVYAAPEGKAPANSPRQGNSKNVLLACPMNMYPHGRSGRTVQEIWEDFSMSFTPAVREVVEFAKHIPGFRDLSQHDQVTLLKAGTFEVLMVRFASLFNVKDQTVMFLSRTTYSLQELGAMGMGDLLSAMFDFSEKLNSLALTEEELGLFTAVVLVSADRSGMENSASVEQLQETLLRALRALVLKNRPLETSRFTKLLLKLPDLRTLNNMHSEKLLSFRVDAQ
Protocol: HEK293T cells were defrosted and maintained in DMEM supplemented with 10% FCS and 1% P/S at 37° C. and 5% CO2. Cells were plated in a 24-well plate (7·10^4 cells/well in 0.5 mL of DMEM+10% FCS). 24 h after seeding, cells were transfected with 100 ng of Bmal-luc, 10 ng of pRL-CMV Renilla as an internal control and 10 ng of REV-ERBα or the empty vector pcDNA3 as a control. All conditions were equalled to a total of 400 ng of DNA by using BSM. In order to prepare transfection samples, calculated amounts of DNA needed for each condition were prepared in Opti-MEM and Fugene was added in a 5:2 Fugene:DNA ratio. Mixtures were vortexed to assure homogeneity and left to incubate for 15 min at rt. Afterwards, each DNA mix was transferred into the 24-well plate containing the pre-seeded cells, with each condition repeated by triplicate. 5 h after transfection, cells were treated with compounds 2-12, AG1-AG5 or DMSO as vehicle. Solution of the compounds in DMEM were prepared at a double concentration than the final desired one, and 0.5 mL of these solutions were added to each well. 24 h after transfection, cells were lysed and luciferase activity was measured using Dual-Luciferase Reporter Assay System E2920 (Promega). To perform the experiment, cells were lysed by adding 50 μL of passive lysis buffer (PLB) (1:5 dilution) to each well and gently stirring for 30 min. Each cell lysate was transferred to a 96-well plate. 50 μL of Dual-Glo reagent were dispensed into each well, tapped gently to mix and incubated for 10 min. Luminescence of firefly luciferase was measured using a Tecan VICTOR Light Luminescent counter equipment. Then, 50 μL of Stop&Glo reagent were dispensed to quench firefly activity and activate Renilla luciferase, incubated for 10 min and measured. Firefly activity was normalized to Renilla luciferase activity. Results were analysed using Welch's corrected parametric t-test.
(§1) The method of Example 2 was repeated using Compounds 70 to 72 (generated as described in Example 1). Compounds 4, 7 and 11 (tested in Example 2) were used as a positive control for REV-ERB inhibitory activity, agonist compound AG2 (also tested in Example 2) and DMSO were also tested as comparators.
The method of Example 2 was repeated using Compounds 64 to 66, 69 and 70 to 73 (generated as described in Example 1). Once again, Compounds 4, 7 and 11 (tested in Example 2) were used as a positive control for REV-ERB inhibitory activity, agonist compound AG2 (also tested in Example 2) and DMSO were also tested as comparators.
as §1, with “16” for “70”, “19, 27, 28 and 44” for “72”, “1). Once again,” for “1).”

[1] = 5 μM, FIG. 10, compared with SR8278
[2] = 10 μM, FIG. 9, compared with SR8278
[3] = FIG. 10 legend, concentration not stated there (5 μM for 7 and 11, 5 and 10 μM for 72), compared with SR8278 and AG2
[4] = FIG. 3, three independent experiments in triplicate, comparison with SR8278
[5] = FIG. 4, two independent experiments in triplicate, comparison with SR8278
[6] = FIG. 7, three independent experiments in triplicate

Row | Effect on REV-ERBα activity (Bmal-luc luciferase expression) (REV-ERBα; [5]) | Effect on REV-ERBα activity (Bmal-luc luciferase expression) (REV-ERBα; [6]) | Compound | Total number of NK cells (NK cells; [1]) | Total number of NK cells (NK cells; [2]) | Total number of NK cells (NK cells; [3]) | Effect on REV-ERBα activity (Bmal-luc luciferase expression) (REV-ERBα; [4]) | Total number of NK cells (NK cells; 10 μM, FIG. 10, compared with SR8278)
1 | significant antagonistic activity | significant antagonistic activity | CCOC(=O)C1Cc2ccccc2CN1C(=O)c1ccco1 (racemic) [Compound 7, Ethyl 2-(furan-2-carbonyl)-1,2,3,4-tetrahydrolsoquinoline-3-carboxylate] | significant increase in the total number of NK cells compared with SR8278 | significant increase in NK cell number | significant increase in NK cell number | significant increase in luciferase expression compared with SR8278; also recorded: significant antagonistic activity | 
2 |  |  | CCOC(=O)C1Cc2ccccc2CN1C(=O)c1ccno1 (racemic) [Compound 8, Ethyl 2-(isoxazole-5-carbonyl)-1,2,3,4-tetrahydrolsoquinoline3-carboxylate] |  |  |  | significant increase in luciferase expression compared with SR8278; also recorded: significant antagonistic activity | 
3 | significant antagonistic activity | significant antagonistic activity | CCOC(=O)C1Cc2ccccc2CN1C(=O)c1ocnc1C (racemic) [Compound 11, Ethyl 2-(4-methyloxazole-5-carbonyl)-1,2,3,4-tetrahydrolsoquinoline-3-carboxylate] | significant increase in the total number of NK cells compared with SR8278 | increase in the total number of NK cells compared with SR8278 | significant increase in NK cell number | significant increase in luciferase expression compared with SR8278; also recorded: significant antagonistic activity | 
4 |  |  | CCOC(=O)C1Cc2ccccc2CN1C(=O)c1scnc1C (racemic) [Compound 12, Ethyl 2-(4-methylthiazole-5-carbonyl)-1,2,3,4-tetrahydrolsoquinoline-3-carboxylate] |  |  |  | significant increase in luciferase expression compared with SR8278; also recorded: significant antagonistic activity | 
5 |  |  | CCOC(=O)C1Cc2ccccc2CN1C(=O)c1cccc2ccccc12 (centres unmarked) [AG1] |  |  |  | agonists | 
6 |  | agonist | CSc1ccc(C(=O)N2Cc3ccccc3CC2COc2ccc(OC(C)(C)C)cc2)s1 (centres unmarked) [AG5] |  |  |  | agonists | 

Row | Compound | Effect on REV-ERBα activity (Bmal-luc luciferase expression) (REV-ERBα; [5]) | Effect on REV-ERBα activity (Bmal-luc luciferase expression) (REV-ERBα; [6]) | Total number of NK cells (NK cells; [1]) | Total number of NK cells (NK cells; [2]) | Total number of NK cells (NK cells; [3]) | Effect on REV-ERBα activity (Bmal-luc luciferase expression) (REV-ERBα; [4]) | Total number of NK cells (NK cells; 10 μM, FIG. 10, compared with SR8278)
7 | CCOC(=O)C1Cc2ccccc2CN1C(=O)c1cccnc1F (racemic) [Compound 27] |  | Inhibitory effect on REV-ERB was observed; also recorded: significant antagonistic activity |  |  |  |  | 
8 | CCOC(=O)C1Cc2ccccc2CN1C(=O)c1ccnc(C)c1 (racemic) [Compound 28] |  | Inhibitory effect on REV-ERB was observed; also recorded: significant antagonistic activity |  |  |  |  | 
9 | CCOC(=O)CN(Cc1ccccc1)C(=O)c1ccco1 (racemic) [Compound 72] | inhibitory effect on REV-ERB greater than that obtained using SR8278; also recorded: significant antagonistic activity |  | significant increase in the total number of NK cells compared with SR8278 |  | significant increase in NK cell number |  | significant increase in the total number of NK cells compared with SR8278
